Test system: MAPK phosphorylation in PANC-1 pancreatic cancer cell line
Test: MAPK cell-based phosphorylation assay (cell-direct ELISA, EGF stimulation)
Conditions: Homo sapiens
Outline: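 Cell-direct ELISA measured phospho-MAPK, with fluorescence read at 595 nm from AmpliFlu Red. Before fixation, PANC-1 cells starved overnight received 6 hours of compound (30 μM single dose or serial dilutions, 0.3% DMSO, 37° C), followed by 1.5 ng/ml EGF for 15 min.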

Row | Structure (SMILES) | IC50 [µM]
1 | Oc1nc(-c2ccccn2)nc2c(-c3ccccc3F)csc12 [drawing 1207] | 2 to 10
2 | Oc1nc(-c2ccccn2)nc2c(-c3ccc(F)cc3F)csc12 [drawing 1210] | 2 to 10
3 | Oc1nc(-c2ccccn2)nc2c(-c3cccc(C(F)(F)F)c3)csc12 [drawing 1212] | < 2
4 | Oc1nc(-c2ccccn2)nc2c(-c3ccsc3)csc12 [drawing 1214] | < 2

Same assay, conditions: Homo sapiens, * = tested at 10 μM

Row | Structure (SMILES) | inhibition at 10 µM [%]
5 | Oc1nc(-c2ccccn2)nc2c(-c3ccccc3F)csc12 [drawing 1207] | 76 to 100
6 | COc1cc(C)c(-c2csc3c(O)nc(-c4ccccn4)nc23)cc1C [drawing 1208] | 1 to 25
7 | COc1ccccc1-c1csc2c(O)nc(-c3ccccn3)nc12 [drawing 1209] | 1 to 25
8 | Oc1nc(-c2ccccn2)nc2c(-c3ccc(F)cc3F)csc12 [drawing 1210] | 76 to 100
9 | COc1cccc(-c2csc3c(O)nc(-c4ccccn4)nc23)c1 [drawing 1211] | 1 to 25
10 | Oc1nc(-c2ccccn2)nc2c(-c3cccc(C(F)(F)F)c3)csc12 [drawing 1212] | 76 to 100
11 | COc1ccc(F)cc1-c1csc2c(O)nc(-c3ccccn3)nc12 [drawing 1213] | 25 to 50
12 | Oc1nc(-c2ccccn2)nc2c(-c3ccsc3)csc12 [drawing 1214] | 76 to 100
13 | Oc1nc(-c2ccccn2)nc2c(-c3ccc(OC(F)F)cc3F)csc12 [drawing 1215] | 51 to 75
14 | CC(C)COc1ccc(-c2csc3c(O)nc(-c4ccccn4)nc23)cn1 [drawing 1216] | 51 to 75
15 | Cc1cc(OC(F)F)ccc1-c1csc2c(O)nc(-c3ccccn3)nc12 [drawing 1217] | 1 to 25
16 | Oc1nc(-c2ccccn2)nc2c(-c3ccc4c(c3)OCO4)csc12 [drawing 1218] | 76 to 100
17 | CC(C)(O)c1ccc(-c2csc3c(O)nc(-c4ccccn4)nc23)c(F)c1 [drawing 1219] | 76 to 100
18 | COc1ccc(-c2csc3c(O)nc(-c4ccccn4)nc23)c(C)c1 [drawing 1220] | 76 to 100
19 | Oc1nc(-c2ccccn2)nc2c(-c3ccccc3C(F)F)csc12 [drawing 1221] | 76 to 100
20 | COc1cc(-c2csc3c(O)nc(-c4ccccn4)nc23)cnc1C(F)(F)F [drawing 1222] | 1 to 25
21 | OCC1(c2ccc(-c3csc4c(O)nc(-c5ccccn5)nc34)cc2)CC1 [drawing 1223] | 51 to 75
22 | Oc1nc(-c2ccccn2)nc2c(-c3ccc(OC4CCCCC4)cc3)csc12 [drawing 1224] | 25 to 50
23 | Cc1cnccc1-c1csc2c(O)nc(-c3ccccn3)nc12 [drawing 1225] | 1 to 25
24 | O=C(CCn1ccnc1)Nc1nc(-c2ccccn2)nc2sccc12 [drawing 1226] | 1 to 25
25 | O=C(CCc1nn[nH]n1)Nc1nc(-c2ccccn2)nc2sccc12 [drawing 1227] | 25 to 50
26 | O=C(CCc1cncnc1)Nc1nc(-c2ccccn2)nc2sccc12 [drawing 1228] | 1 to 25

Row | Structure (SMILES) | inhibition at 10 µM [%]
27 | Nc1nc(-c2ccccn2)nc2c(Br)csc12 [drawing 1229] | 25 to 50
28 | Cc1sc2c(N)nc(-c3ccccn3)nc2c1Br [drawing 1230] | 1 to 25
29 | Nc1nc(-c2ccccn2)nc2scc(Br)c12 [drawing 1231] | 1 to 25
30 | COC(=O)c1csc2nc(-c3ccccn3)nc(N)c12 [drawing 1232] | 25 to 50
31 | COc1nccc(CCNC(=O)c2csc3nc(-c4ccccn4)nc(N4CCOCC4)c23)n1 [drawing 1234] | 25 to 50
32 | O=C(NCCc1ccnc(O)n1)c1csc2nc(-c3ccccn3)nc(N3CCOCC3)c12 [drawing 1235] | 1 to 25
33 | CN1CCN(c2nc(-c3ccccn3)nc3scc(C(=O)NCCc4cnc(O)nc4)c23)CC1 [drawing 1236] | 25 to 50
34 | Oc1nc(-c2ccccn2)nc2c(-c3cc(F)cc(F)c3)csc12 [drawing 1237] | 76 to 100
35 | Oc1nc(-c2ccccn2)nc2c(-c3ccc4c(c3)CCCO4)csc12 [drawing 1238] | 76 to 100
36 | CCn1nc(C)cc1-c1csc2c(O)nc(-c3ccccn3)nc12 [drawing 1239] | 1 to 25
37 | Oc1nc(-c2ccccn2)nc2c(-c3ccnn3-c3ccccn3)csc12 [drawing 1240] | 1 to 25
38 | Cc1sc2c(O)nc(-c3ccccn3)nc2c1-c1ccccc1 [drawing 1241] | 76 to 100
39 | Nc1nc(-c2ccccn2)nc2scc(C(=O)O)c12 [drawing 1242] | 1 to 25
40 | COC(=O)c1cc2nc(-c3ccccn3)nc(O)c2s1 [drawing 1243] | 25 to 50
41 | COc1nc(-c2ccccn2)nc2c(C3CCCC3)csc12 [drawing 1244] | 1 to 25
42 | CCC(C)c1csc2c(OC)nc(-c3ccccn3)nc12 (centres unmarked) [drawing 1245] | 25 to 50
43 | Cc1cc2nc(-c3ccccn3)nc(O)c2s1 [drawing 1246] | 25 to 50
44 | COC(=O)c1c(C)sc2c(O)nc(-c3ccccn3)nc12 [drawing 1247] | 1 to 25
45 | Cc1c(Br)sc2c(O)nc(-c3ccccn3)nc12 [drawing 1248] | 1 to 25
46 | Cc1c(C(=O)O)sc2c(O)nc(-c3ccccn3)nc12 [drawing 1249] | 25 to 50
47 | Oc1nc(-c2ccccn2)nc2c(C3CCC3)csc12 [drawing 1250] | 76 to 100
48 | COc1nc(-c2ccccn2)nc2c(C3CCCCC3)csc12 [drawing 1251] | 1 to 25

Row | Structure (SMILES) | inhibition at 10 µM [%]
49 | CC(C)Oc1cnc(-c2ccccn2)nc1O [drawing 1252] | 1 to 25
50 | CN(C)CCOc1cccc(-c2csc3c(O)nc(-c4ccccn4)nc23)c1 [drawing 1253] | 76 to 100
51 | CC(C)Cc1csc2c(O)nc(-c3ccccn3)nc12 [drawing 1255] | 76 to 100
52 | Oc1nc(-c2ccccn2)nc2c(C3CCCC3)csc12 [drawing 1256] | 76 to 100
53 | COc1cnc(-c2cn(C)cn2)nc1O [drawing 1257] | 51 to 75
54 | Cc1sc2c(O)nc(-c3ccccn3)nc2c1-c1ccncc1 [drawing 1258] | 51 to 75
55 | Oc1cccc(-c2csc3c(O)nc(-c4ccccn4)nc23)n1 [drawing 1259] | 51 to 75
56 | COC(=O)c1c(C)sc2c(N)nc(-c3ccccn3)nc12 [drawing 1260] | 25 to 50
57 | O=C(NCCc1ccncn1)c1csc2nc(-c3ccccn3)nc(N3CCOCC3)c12 [drawing 1261] | 0
58 | CC(C)c1nn(C)cc1-c1csc2c(O)nc(-c3ccccn3)nc12 [drawing 1262] | 0
59 | Oc1nc(-c2ccccn2)nc2c(-c3cc(CN4CCCC4)ccc3F)csc12 [drawing 1263] | 0
60 | N#Cc1cccc(-c2csc3c(O)nc(-c4ccccn4)nc23)c1 [drawing 1264] | 0
61 | Oc1nc(-c2ccccn2)nc2c(-c3cncnc3)csc12 [drawing 1265] | 0
62 | Cc1c(-c2csc3c(O)nc(-c4ccccn4)nc23)cnn1C [drawing 1266] | 0
63 | Cc1nn(C(C)C)cc1-c1csc2c(O)nc(-c3ccccn3)nc12 [drawing 1267] | 0
64 | Oc1nc(-c2ccccn2)nc2c(-c3cncc(C(F)F)c3)csc12 [drawing 1268] | 0
65 | Cc1sc2c(O)nc(-c3ccccn3)nc2c1C(=O)N1CCN(c2ccccc2)CC1 [drawing 1269] | 1 to 25
66 | Cc1sc2c(O)nc(-c3ccccn3)nc2c1C(=O)N1CCN(c2ccccc2)CC1C (centres unmarked) [drawing 1270] | 1 to 25
67 | Cc1sc2c(O)nc(-c3ccccn3)nc2c1C(=O)N1CCN(Cc2cccc(O)c2)CC1 [drawing 1271] | 25 to 50
68 | Oc1nc(-c2ccccn2)nc2c(C3CCCCC3)csc12 [drawing 1272] | 25 to 50
